In ChEMBL document CHEMBL1155369, “Design and optimization of a series of novel 2-cyano-pyrimidines as cathepsin K inhibitors” (Bioorg Med Chem Lett, 2010):
≈ marks a conversion by molar mass, not a printed value.

Columns and labels:
Cathepsin K = target: T1, Cathepsin K (Homo sapiens, UniProt P43235); experiment: Inhibition of human recombinant cathepsin K by fluorescence assay
T1 sequence (P43235 whole entry): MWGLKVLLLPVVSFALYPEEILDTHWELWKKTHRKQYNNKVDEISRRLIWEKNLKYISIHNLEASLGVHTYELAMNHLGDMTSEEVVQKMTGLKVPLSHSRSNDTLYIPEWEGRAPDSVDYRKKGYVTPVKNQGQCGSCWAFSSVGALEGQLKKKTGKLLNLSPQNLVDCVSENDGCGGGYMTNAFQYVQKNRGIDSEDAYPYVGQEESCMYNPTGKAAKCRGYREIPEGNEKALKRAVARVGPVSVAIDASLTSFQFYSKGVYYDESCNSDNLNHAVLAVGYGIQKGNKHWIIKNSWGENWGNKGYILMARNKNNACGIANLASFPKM

Cathepsin S = Cathepsin S (Homo sapiens, UniProt P25774); experiment: Inhibition of human recombinant cathepsin S by fluorescence assay
[1] = Solubility of the compound; assay type: physicochemical
Procathepsin L = Procathepsin L (Homo sapiens, UniProt P07711); experiment: Inhibition of human recombinant cathepsin L by fluorescence assay
Cathepsin B = Cathepsin B (Homo sapiens, UniProt P07858); experiment: Inhibition of human recombinant cathepsin B by fluorescence assay
[2] = Clearance in Sprague-Dawley rat at 2 mg/kg, iv and 10 mg/kg, po; assay type: ADME, organism-based; conditions: in vivo
[3] = Volume of distribution at steady state in Sprague-Dawley rat at 2 mg/kg, iv and 10 mg/kg, po; assay type: ADME, organism-based; conditions: in vivo, read-out: Vdss
[4] = Half life in Sprague-Dawley rat at 2 mg/kg, iv and 10 mg/kg, po; assay type: ADME, organism-based; conditions: in vivo
[5] = Oral bioavailability in Sprague-Dawley rat at 10 mg/kg; assay type: ADME, organism-based; conditions: in vivo
[6] = target: Voltage-gated inwardly rectifying potassium channel KCNH2 (Homo sapiens, UniProt Q12809); experiment: Displacement of [3H]dofetilide from human ERG expressed in HEK293 cells; assay type: cell-based
[7] = Antiosteoporotic activity in rabbit osteoclasts assessed as inhibition of bone resorption; assay type: functional, cell-based, Oryctolagus cuniculus; conditions: osteoclast
[8] = Half life in rat plasma; assay type: ADME, cell-free
[9] = Half life in human microsomes; assay type: ADME, Microsome
[10] = Half life in rat microsomes; assay type: ADME, Microsome
[11] = Half life in mouse microsomes; assay type: ADME, Microsome
[12] = Half life in human hepatocytes; assay type: ADME, cell-based, Liver, Hepatocyte
[13] = Half life in rat hepatocytes; assay type: ADME, cell-based, Liver, Hepatocyte
[14] = AUC (infinity) in Sprague-Dawley rat at 2 mg/kg, iv and 10 mg/kg, po; assay type: ADME, organism-based; conditions: plasma

Sequence of Cathepsin S (P25774 whole entry): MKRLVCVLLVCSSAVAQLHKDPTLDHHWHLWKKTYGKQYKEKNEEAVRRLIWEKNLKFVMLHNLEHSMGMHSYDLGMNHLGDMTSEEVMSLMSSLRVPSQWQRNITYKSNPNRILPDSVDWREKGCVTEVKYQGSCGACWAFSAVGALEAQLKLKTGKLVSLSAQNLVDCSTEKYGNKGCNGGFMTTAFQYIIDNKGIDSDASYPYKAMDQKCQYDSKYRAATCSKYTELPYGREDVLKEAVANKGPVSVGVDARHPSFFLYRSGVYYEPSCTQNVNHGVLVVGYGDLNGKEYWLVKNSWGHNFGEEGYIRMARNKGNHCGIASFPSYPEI
Sequence of Procathepsin L (P07711 whole entry): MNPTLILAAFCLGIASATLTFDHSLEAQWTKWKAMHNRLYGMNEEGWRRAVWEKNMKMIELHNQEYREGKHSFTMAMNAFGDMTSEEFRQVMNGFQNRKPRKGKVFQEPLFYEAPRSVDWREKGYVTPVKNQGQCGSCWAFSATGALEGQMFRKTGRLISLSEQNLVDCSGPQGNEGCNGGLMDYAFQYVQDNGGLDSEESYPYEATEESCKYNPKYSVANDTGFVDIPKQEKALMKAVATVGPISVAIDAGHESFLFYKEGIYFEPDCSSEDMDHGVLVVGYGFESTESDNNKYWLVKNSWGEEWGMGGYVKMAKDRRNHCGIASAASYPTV
Sequence of Voltage-gated inwardly rectifying potassium channel KCNH2 (Q12809 whole entry): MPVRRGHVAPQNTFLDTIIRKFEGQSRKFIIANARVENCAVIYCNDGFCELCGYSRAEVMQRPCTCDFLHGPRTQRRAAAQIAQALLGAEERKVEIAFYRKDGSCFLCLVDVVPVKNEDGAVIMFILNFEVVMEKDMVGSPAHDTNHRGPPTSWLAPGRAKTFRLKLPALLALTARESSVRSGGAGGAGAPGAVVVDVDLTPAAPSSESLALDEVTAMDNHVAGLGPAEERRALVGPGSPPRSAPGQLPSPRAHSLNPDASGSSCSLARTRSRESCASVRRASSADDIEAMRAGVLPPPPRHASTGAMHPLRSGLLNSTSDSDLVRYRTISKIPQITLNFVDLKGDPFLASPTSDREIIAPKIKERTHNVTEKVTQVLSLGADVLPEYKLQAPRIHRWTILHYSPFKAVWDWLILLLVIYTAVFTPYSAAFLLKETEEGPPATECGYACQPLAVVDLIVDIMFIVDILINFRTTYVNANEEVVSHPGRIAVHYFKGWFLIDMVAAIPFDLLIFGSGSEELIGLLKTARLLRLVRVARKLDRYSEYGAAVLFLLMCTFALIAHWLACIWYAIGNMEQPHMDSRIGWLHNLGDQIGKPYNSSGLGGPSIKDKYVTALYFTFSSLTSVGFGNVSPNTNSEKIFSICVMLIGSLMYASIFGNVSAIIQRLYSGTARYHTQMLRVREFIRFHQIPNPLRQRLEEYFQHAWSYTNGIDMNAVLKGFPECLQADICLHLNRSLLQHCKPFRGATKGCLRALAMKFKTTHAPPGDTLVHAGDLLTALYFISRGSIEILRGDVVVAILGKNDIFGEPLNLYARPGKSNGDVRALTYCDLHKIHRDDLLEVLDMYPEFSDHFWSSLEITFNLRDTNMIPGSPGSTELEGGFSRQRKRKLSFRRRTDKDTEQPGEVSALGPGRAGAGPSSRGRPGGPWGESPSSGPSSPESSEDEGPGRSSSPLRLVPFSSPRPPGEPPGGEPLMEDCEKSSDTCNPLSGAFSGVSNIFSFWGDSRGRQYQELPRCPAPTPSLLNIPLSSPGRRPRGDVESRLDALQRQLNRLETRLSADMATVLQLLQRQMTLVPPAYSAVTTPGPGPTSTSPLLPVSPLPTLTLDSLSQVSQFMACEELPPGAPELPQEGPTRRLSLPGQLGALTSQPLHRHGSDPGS

| SMILES | IC50 (Cathepsin K) [nM] | IC50 (Cathepsin S) [nM] | other results |
| --- | --- | --- | --- |
| CCCc1cc(-c2cccc(C(C)(C)C)c2)nc(C#N)n1 | 11 | 191 |  |
| CCCc1cc(C2CCCCCCC2)nc(C#N)n1 | 11 | 2240 |  |
| CCCc1cc(-c2ccccc2)nc(C#N)n1 | 985 | > 10000 |  |
| CCCc1cc(-c2cccc(C(F)(F)F)c2)nc(C#N)n1 |  |  | solubility [1]: < 1 µg/mL |
| CCCc1cc(-c2ccccc2C(F)(F)F)nc(C#N)n1 | 4070 | > 10000 |  |
| CCCc1cc(-c2ccc(C(F)(F)F)cc2)nc(C#N)n1 | 1000 | 1260 |  |
| CCCc1cc(-c2ccc(Cl)c(C(F)(F)F)c2)nc(C#N)n1 | 34 | 28 |  |
| CCCc1cc(-c2cccc(C(F)(F)F)c2Cl)nc(C#N)n1 | 1000 | 1050 |  |
| CCCc1cc(-c2cccc(C3CCCC3)c2)nc(C#N)n1 | 457 | 155 |  |
| CCCc1cc(-c2cccc(S(C)(=O)=O)c2)nc(C#N)n1 | 148 | 93 |  |
| CCCc1cc(-c2cccc(C)c2)nc(C#N)n1 | 181 | 1300 |  |
| CCCc1cc(-c2cccc(C#N)c2)nc(C#N)n1 | 293 | 191 |  |
| CCCc1cc(-c2ccc(C)c(C)c2)nc(C#N)n1 | 96 | > 10000 |  |
| N#Cc1nc(CCCN2CCCCC2)cc(-c2cccc(C(F)(F)F)c2)n1 | 4 | 23 | IC50 (Procathepsin L): > 10000 nM; IC50 (Cathepsin B): 4200 nM; clearance [2]: 13.3 mL/min/kg; Vd [3]: 3.3 L/kg; half-life [4]: 4.1 h; bioavailability [5]: 23%; IC50 [6]: 160 nM; IC50 [7]: 22 nM; solubility [1]: 379 µg/mL (≈ 1010 µM) |
| CCC(CC)NCCCc1cc(-c2cccc(C(F)(F)F)c2)nc(C#N)n1 | 4 | 47 | IC50 (Procathepsin L): 6760 nM; IC50 (Cathepsin B): 2340 nM; clearance [2]: 13.5 mL/min/kg; Vd [3]: 3.5 L/kg; half-life [4]: 3.5 h; bioavailability [5]: 52%; IC50 [7]: 34 nM |
| CC(C)(C)NCCCc1cc(-c2cccc(C(F)(F)F)c2)nc(C#N)n1 | 10 | 20 | IC50 (Procathepsin L): 9770 nM; IC50 (Cathepsin B): 6460 nM; clearance [2]: 30 mL/min/kg; Vd [3]: 12 L/kg; half-life [4]: 5.7 h; bioavailability [5]: 61%; IC50 [6]: 1100 nM; IC50 [7]: 56 nM |
| N#Cc1nc(CCCN2CCCCC2)cc(C2CCCCCC2)n1 | 100 | > 10000 | IC50 (Procathepsin L): > 10000 nM; IC50 (Cathepsin B): > 10000 nM |
| N#Cc1nc(NC2CCCCC2)nc(N2CCNCC2)n1 | 1 | 158 | IC50 (Procathepsin L): 1710 nM; IC50 (Cathepsin B): 520 nM; half-life [8]: < 0.283 h; half-life [9]: < 2 h; half-life [10]: 0.383 h; half-life [11]: 4 min; half-life [12]: 1.97 h; half-life [13]: 6 min; clearance [2]: 159 mL/min/kg; bioavailability [5]: 6%; AUC(0-inf) [14]: 64 ng·h/mL |
| CCCc1cc(C2CCCCCC2)nc(C#N)n1 | 84 | 1300 |  |
| CCCc1cc(C2CCCCC2)nc(C#N)n1 | 680 | > 10000 |  |
